Melting point data for 89 molecules are collected here from a melting point compilation (Tetko et al.; mined from patent text by program, amines drawn as free bases though some values may be those of a salt).

With `CC(C)OC(=O)c1cc(I)c(F)cc1Cl`, the melting point was in the range of 38 to 43 °C.

`CC(=O)NCC1CC1c1cccn2nc(C)nc12` (centres undefined) displayed a melting point of 116 to 118 °C.

As to `CS(=O)(=O)c1ccc(-n2cncc2-c2ccc(F)cc2F)cc1`, the melting point came out at 119 °C.

Molecule `O=C(O)c1cccc(-c2nc(-c3cccc(C(F)(F)F)c3)cs2)c1` came in with a melting point of 229 to 230 °C.

The molecule `COc1ccc(C#N)cc1C=NO` returned a melting point of 142 to 144 °C.

`COc1ccc(-c2c3c(cc4ccc(OCc5ccccc5)cc24)C(=O)NC3)cc1` showed a melting point of 213 to 216 °C.

As to `COc1ccc(NC(=S)NCCCn2ccnc2)cc1OC`, the melting point is 160 to 161 °C.

For `Cn1cc(Cl)c(-n2ccnc2S(N)(=O)=O)n1`, the melting point lay within 208 to 210 °C.

In the case of `CC1(C)NC(=O)N(c2cc(Cl)c(F)c(Cl)c2)C1=O`, the melting point was in the range of 175 to 176 °C.

As for `Cc1cccc2c1nc(COc1ccc(Cl)cc1)n2CCC(C)CN(C)C` (racemic), the melting point fell in the range of 80 to 82 °C.

`Cc1cccc2c1NC(=O)C(NC(=O)OCc1ccccc1)N=C2c1ccccc1F` (racemic): the melting point is 222 to 225 °C.

Turning to `O=c1c(Br)c(OCc2ccccc2)ccn1Cc1ccc(OCc2ccccc2)cc1`, the melting point was 138 to 144 °C.

Regarding `COc1cc(OC)c2c(=O)cc(-c3ccccc3Cl)oc2c1C1CCN(C)C1CO` (centres undefined), the melting point fell in the range of 91 to 93 °C.

As to `CN(C)c1ccc(C=Cc2ccc(S(C)(=O)=O)cc2)cc1`, the melting point fell in the range of 242 to 243 °C.

In turn, `CON=Cc1sc(-c2ccc(O)cc2C)c(C)c1-c1ccc(O)c(F)c1` showed a melting point of 172 to 177 °C.

Regarding `CCOC(=O)C=Cc1ccn(C)c(=O)c1`, the melting point lay in the range of 126 to 127 °C.

The molecule `Cc1ccc(-c2nc3ccc(N4C[C@H]5CN(C)C[C@H]5C4)nn3c2-c2ccncc2)o1` yielded a melting point of 178 to 181 °C.

Molecule `O=C(Nc1ccc(F)cc1)c1ccc(C2COC(c3c(F)cccc3F)=N2)cc1` (centres undefined) had a melting point of 210 to 212 °C.

Consider `CC(NC(=O)C=Cc1ccc(C(C)(C)C)cc1)c1ccc(NS(C)(=O)=O)c(F)c1` (centres undefined), for which the melting point lay in the range of 154 to 156 °C.

The molecule `O=C(O)CCCCc1ccn2cncc2c1` yielded a melting point of 158 to 161 °C.

As for `CC(C)C(=O)NC1CCc2[nH]c3cc4c(cc3c2C1)OCO4` (centres undefined), the melting point lay in the range of 198 to 200 °C.

Consider `CN(C)c1ccc2c(=O)[nH]c(=O)n(CCCCN3CCC(OC(c4ccccc4)c4ccccc4)CC3)c2c1`, for which the melting point was 203 to 204 °C.

As for `Cc1cc2nc(C)n(COC(=O)C(C)(C)C)c(=O)c2cc1CBr`, the melting point lay in the range of 149 to 152 °C.

The molecule `O=C1[C@H]2CCC[C@H]2Nc2ccc(F)cc2N1Cc1ccccc1` (relative stereo) returned a melting point of 124 to 126 °C.

Molecule `COc1nc(C)c(C)nc1NC(=O)N1CCN(c2c(C)c(C)cc(C)c2C)CC1` had a melting point of 202 to 204 °C.

For `Cc1nn(C)c2c1Nc1ccccc1NC2=O`, the melting point lay within 189 to 190 °C.

In the case of `N#CC(=Cc1ccc2[nH]ccc2c1)S(=O)(=O)c1ccc(OC(F)(F)F)cc1`, the melting point lay within 171 to 175 °C.

`CCOC(=O)NCCc1cccc(-c2ccnc3c(C#N)cnn23)c1` came in with a melting point of 133 to 135 °C.

Regarding `Cc1nc2cc(NC(=O)c3cc4cc(F)ccc4n3Cc3cccc(F)c3)cnc2s1`, the melting point lay in the range of 264 to 265 °C.

With `O=C([C@@H](Cc1ccc(Cl)cc1)NC1CCC(O)(c2ccc(F)cc2)CC1)N1CCC(Cn2cncn2)(C2CCCCC2)CC1` (some centres undefined), the melting point turned out to be 150 °C.

`CCCCCCCCCCCCSc1nnn(C(C(=O)O)c2ccccc2)n1` (centres undefined): the melting point lay in the range of 64 to 67 °C.

For the molecule `CCCN(C(C)=O)c1cccc(-c2ccc3nnc(C)n3n2)c1`, the melting point was in the range of 145 to 149 °C.

In turn, `O=C(O)CN(CC(=O)O)c1cccc(N(CC(=O)O)CC(=O)O)c1` registered a melting point of 188 °C.

`CC(C)(CC12CC3CC(CC(C3)C1)C2)NC=O` yielded a melting point of 87 to 88 °C.

Consider `CCCCCCCN(CCCCCSc1nc2c([nH]1)CCCC2)C(=O)Nc1ccc(F)cc1F`, for which the melting point is 98 to 100 °C.

Turning to `O=C(O)C1Cc2cc3c(=O)c4c(F)cccc4oc3c(Cl)c2O1` (centres undefined), the melting point came out at 300 °C.

In turn, `CC(C)(C)c1noc(-c2cccc(Cl)n2)n1` registered a melting point of 103 to 104 °C.

In turn, `CCC(=CC(CNC(=O)c1ccncn1)=NO)C(C)[N+](=O)[O-]` (centres undefined) had a melting point of 150 to 152 °C.

Take `CCC(=O)C(C(=O)OC)C(C(=O)c1ccccc1)c1ccc(F)cc1` (centres undefined): the melting point is 104 to 109 °C.

In the case of `N#Cc1cc2cc(F)c(F)cc2o1`, the melting point turned out to be 103 °C.

As to `O=P1(c2ccc(F)cc2)c2ccccc2CN1c1ccccc1` (centres undefined), the melting point was in the range of 119 to 120 °C.

In turn, `CCCCCCCCCCNC(=O)C1=C(C(=O)Nc2cc(OC3CCCC3)c(Cl)cc2F)CCCC1` came in with a melting point of 128 to 130 °C.

The molecule `CCOC(=O)C1Cc2ccc(N(C)C)cc2NC1=O` (centres undefined) registered a melting point of 181 to 182 °C.

`Cc1ccc(C(c2ccc(C)cc2)N2CCCC2)cc1` had a melting point of 61 to 63 °C.

On to `CC(C)(C)c1cc(C[PH](=O)O)cc(C(C)(C)C)c1O`, for which the melting point was in the range of 147 to 149 °C.

Take `CCCCNC(=O)[C@H](C)C[C@H](O)[C@H](CC1CCCCC1)NC(=O)[C@H](Cc1cscn1)NC(=O)[C@@H](CC(=O)N(C)Cc1ccccc1)Cc1ccc(OC)cc1`: the melting point is 112 to 114 °C.

For the molecule `CN1Cc2c(C(=O)O)ncn2-c2ccccc2C1=O`, the melting point came out at 287 °C.

The molecule `Cc1cc(CCCOc2ccc(-c3noc(C(F)(F)F)n3)cc2C)on1` gave a melting point of 69 to 70 °C.

`CCOC(=O)c1ncc2[nH]c3c(c2c1COC)C(=O)CCC3` returned a melting point of 249 to 250 °C.

`CC#CCOc1ccc(S(=O)(=O)C(C(=O)NO)c2ccc(Br)cc2)cc1` (centres undefined) registered a melting point of 187 °C.

`O=C(c1c(-c2ccccc2)oc2ccccc2c1=O)N1CCN(c2ccccn2)CC1` displayed a melting point of 178 to 181 °C.

The molecule `N#Cc1ccc(-c2ccc(N3CCOCC3)cc2)[nH]c1=O` yielded a melting point of 272 to 275 °C.

The molecule `CC(C)c1ccc(N(Cc2ccc(F)cc2)C(=O)Nc2c(C(C)C)cccc2C(C)C)cc1` yielded a melting point of 80 °C.

`COC(=O)c1nc(N(C)C2CCCCC2)ccc1Oc1nc(OC)cc(OC)n1` returned a melting point of 116 to 118 °C.

For `COc1cc(N2CCN(Cc3ccc(CNC(C)=O)cc3)CC2)nc(OC)n1`, the melting point lay within 89 to 90 °C.

Molecule `CCOP(=O)(CNc1ccc2cc([N+](=O)[O-])cc(-c3cccc4ccccc34)c2n1)OCC` showed a melting point of 187 to 188 °C.

As to `CC(C)(C)C(=O)Oc1ccc(CCNC(=O)c2cccnc2)cc1OC(=O)C(C)(C)C`, the melting point lay within 112 to 114 °C.

Turning to `O=C(O)COc1ccccc1N1CCN(c2ccncc2)CC1`, the melting point lay within 294 to 296 °C.

Molecule `O=C(Nc1cnc(N2CCCC2)cc1C(F)(F)F)c1cc2cc(C(F)(F)F)cnc2n1Cc1cccc(F)c1` showed a melting point of 207 to 208 °C.

Molecule `Nc1cccc(-c2ccc(CCN3CCN(CCc4ccccc4)CC3)c3ccccc23)n1` gave a melting point of 80 to 105 °C.

For the molecule `CNC1NC(=O)c2sccc2-n2cccc21` (centres undefined), the melting point came out at 146 °C.

`Cc1cc(NCc2ccccc2)c2cc(NC(=O)C=Cc3ccccc3Cl)ccc2n1` registered a melting point of 253 to 254 °C.

`CCC1(CC)C(=O)N(C(C)C)CC(C)(C)N1OC(C)(C)C#N` gave a melting point of 84 to 89 °C.

Turning to `O=Cc1cn(CCCCl)c2ccc(Cl)cc12`, the melting point fell in the range of 107 to 108 °C.

`CC(C)(C)OC(=O)N1CC=C(c2ncccc2N)CC1`: the melting point lay within 104 to 105 °C.

As to `O=C(O)CCC1c2ccccc2C(=O)N1c1ccccc1` (centres undefined), the melting point lay in the range of 186 to 187 °C.

`Cn1cnc2cc(NC(=O)c3cc4cc(F)ncc4n3Cc3cccc(F)c3)ccc21` had a melting point of 279 to 281 °C.

On to `COc1cc(OC)nc(Oc2ccc3ccccc3c2C(=O)OCC=NOCC=CCl)n1`, for which the melting point is 77 to 83 °C.

In turn, `COc1ccc(-c2cc(C)c(N)c(CO)c2)cn1` gave a melting point of 80 to 82 °C.

`COc1cc2c(Cl)c(C(=O)Cl)sc2cc1OCc1ccccc1`: the melting point was in the range of 144 to 152 °C.

`CCCc1ccc(-c2cc(F)c(-c3ccc(CCC)s3)c(F)c2)cc1` registered a melting point of 64 °C.

For the molecule `CC1CCC(C(C)C)C(OCC(=O)OC2CC(=O)C(CCCCCCC(=O)O)=C2C=Cc2ccccc2)C1` (centres undefined), the melting point lay in the range of 103 to 104 °C.

Take `CC(C)[C@H]1CC[C@H](C(=O)CO)CC1`: the melting point fell in the range of 43 to 44 °C.

As for `Cc1cc(C)c(S(=O)(=O)N(C)O)c(C)c1`, the melting point was in the range of 83 to 84 °C.

On to `CCCCCCCCCCCCCCCC1=CC=CC(=O)C12CO2` (centres undefined), for which the melting point fell in the range of 45 to 47 °C.

`Fc1cccc(F)c1C1=NC(c2cc3sc(-c4ccc(OC(F)(F)F)cc4)cc3s2)CC1` (centres undefined) returned a melting point of 135 °C.

`CCOCc1nc2c(N)nc3cc(OCc4cccc(C)c4)ccc3c2n1CC(C)C` yielded a melting point of 207 to 208 °C.

For the molecule `BrCC(Br)c1ccc(C(Br)CBr)cc1` (centres undefined), the melting point was 155 to 157 °C.

The molecule `Cc1ccc(S(=O)(=O)N2CCCC2c2ccco2)cc1` (racemic) registered a melting point of 58 °C.

Take `ClCc1cn2ccccc2n1`: the melting point was in the range of 93 to 94 °C.

Molecule `COC(=O)Cc1ccc(S(C)(=O)=O)c(S(C)(=O)=O)c1` yielded a melting point of 157 to 158 °C.

With `CCCCCCCCCCCCCCCCCC(=O)N[C@H]1CCCNC(=O)C1`, the melting point fell in the range of 87 to 88 °C.

Molecule `Nc1ccc(CCNS(=O)(=O)c2cccc3[nH]nnc23)cc1` displayed a melting point of 178 to 179 °C.

Take `COc1ccc(-c2cc3cc(Cl)cc(Cl)c3o2)cc1`: the melting point was 172 to 174 °C.

Take `O=C1Cc2cc([N+](=O)[O-])c(NC(=O)c3ccncc3)cc2N1`: the melting point was over 300 °C.

As for `O=[N+]([O-])c1ncn(COC(CO)CO)n1`, the melting point is 132 °C.

Take `CN(C)C(=S)CCC(c1ccccc1)(c1ccccc1)c1ccccc1`: the melting point is 114 to 116 °C.

The molecule `O=c1[nH]nc(-c2ccc(-n3ccnc3)cc2)c2cccnc12` showed a melting point of 359 to 361 °C.

Take `CCCc1nc2c(N)nc3ccccc3c2n1OCc1ccccc1`: the melting point was 164 to 166 °C.
